Reference: ChEMBL document CHEMBL1147886, “Synthesis and pharmacological evaluation of novel conformationally constrained homologues of glutamic acid” (Eur J Med Chem, 2007)

Assays:
Format in all cases: cell membranes
[1] = target: Glutamate NMDA receptor; assay: Displacement of [3H]CGP-39653 from NMDA receptor in rat cortical membrane
[2] = Displacement of [3H]AMPA from AMPA receptor in rat cortical membrane
[3] = Displacement of [3H]KA from KA receptor in rat cortical membrane

Compound | Ki [1] [µM] | IC50 [2] [µM] | IC50 [3] [µM]
O=C(O)C1=NO[C@]2(CN[C@@H](C(=O)O)C2)C1 | > 100 | > 100 | > 100
O=C(O)[C@@H]1C[C@@]2(CN1)CC(O)=NO2 | > 100 | > 100 | > 100
O=C(O)[C@H]1C[C@@]2(CN1)CC(O)=NO2 | > 100 | > 100 | > 100
O=C(O)C1=NO[C@@]2(CN[C@H](C(=O)O)C2)C1 | > 100 | > 100 | > 100
N[C@@H](CCCP(=O)(O)O)C(=O)O |  | > 100 | > 100
N[C@]1(C(=O)O)C[C@H]1[C@@H]1CC(C(=O)O)=NO1 (racemic) | 34 | > 100 | > 100
O=C(O)C1=NO[C@]2(CN[C@H](C(=O)O)C2)C1 | > 100 | > 100 | > 100
O=C(O)C1=NO[C@@]2(CN[C@@H](C(=O)O)C2)C1 | > 100 | > 100 | > 100
N[C@H](C[C@@H]1CC(C(=O)O)=NO1)C(=O)O (racemic) |  | > 100 | > 100
O=C(O)[C@@H]1C[C@]2(CN1)CC(O)=NO2 | > 100 | > 100 | > 100
N[C@]1(C(=O)O)C[C@H]1[C@H]1CC(O)=NO1 (racemic) | > 100 | > 100 | > 100
N[C@]1(C(=O)O)C[C@H]1[C@H]1CC(C(=O)O)=NO1 (racemic) | > 100 | > 100 | > 100
O=C(O)[C@H]1C[C@]2(CN1)CC(O)=NO2 | > 100 | > 100 | > 100
N[C@H](C[C@H]1CC(C(=O)O)=NO1)C(=O)O (racemic) |  | > 100 | > 100
N[C@H](CCCP(=O)(O)O)C(=O)O |  | > 100 | > 100
N[C@]1(C(=O)O)C[C@H]1[C@@H]1CC(O)=NO1 (racemic) | 13 | > 100 | > 100
